In ChEMBL document CHEMBL1201862, “PubChem BioAssay data set” (2004):
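Dose response: 5 concentrations. Exposure: 48 h. Format: 96-well plates. Endpoint: linear interpolation; highest concentration if not reached. Abbreviation: GI50, concentration required for 50% inhibition of growth.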 Active and inactive are the calls of the source. Cut-off read from the data, not from the text of the source: active = GI50 up to about 1.1 µM and inactive = higher.

Columns and labels:
Assay in all cases: growth of human tumour cells (NCI), 48 h
ACHN = test system: ACHN
CCRF-CEM = test system: CCRF-CEM
COLO 205 = test system: COLO 205
HOP-62 = test system: HOP-62
HOP-92 = test system: HOP-92
Hs-578T = test system: Hs-578T
K562 = test system: K562
LOX IMVI = test system: LOX IMVI
MDA-N = test system: MDA-N
MOLT-4 = test system: MOLT-4
NCI-H460 = test system: NCI-H460
NCI/ADR-RES = test system: NCI/ADR-RES
OVCAR-5 = test system: OVCAR-5
SF-539 = test system: SF-539
SK-MEL-5 = test system: SK-MEL-5
SK-OV-3 = test system: SK-OV-3
SNB-19 = test system: SNB-19
U-251 = test system: U-251
UACC-257 = test system: UACC-257
UO-31 = test system: UO-31

Row | SMILES | GI50 (ACHN) | GI50 (CCRF-CEM) | GI50 (COLO 205) | GI50 (HOP-62) | GI50 (HOP-92) | GI50 (Hs-578T) | GI50 (K562) | GI50 (LOX IMVI) | GI50 (MDA-N) | GI50 (MOLT-4) | GI50 (NCI-H460) | GI50 (NCI/ADR-RES) | GI50 (OVCAR-5) | GI50 (SF-539) | GI50 (SK-MEL-5) | GI50 (SK-OV-3) | GI50 (SNB-19) | GI50 (U-251) | GI50 (UACC-257) | GI50 (UO-31)
1 | CC(=O)N1CC(=O)N2C(=O)/C(=C/c3ccc(Cl)cc3)N=C12 | > 100 µM (inactive) | 45 µM (inactive) | > 100 µM (inactive) | > 100 µM (inactive) | > 100 µM (inactive) | 30.9 µM (inactive) | 49.1 µM (inactive) | > 100 µM (inactive) | > 100 µM (inactive) | 48.3 µM (inactive) | > 100 µM (inactive) | > 100 µM (inactive) | > 100 µM (inactive) | > 100 µM (inactive) | > 100 µM (inactive) | > 100 µM (inactive) | > 100 µM (inactive) | > 100 µM (inactive) | > 100 µM (inactive) | > 100 µM (inactive)
2 | O=C1c2cc3c(cc2CC12Cc1cc4c(cc1C2=O)CCCC4)CCCC3 | 62.1 µM (inactive) | > 100 µM (inactive) | > 100 µM (inactive) | 24.2 µM (inactive) | 18.9 µM (inactive) | 28.3 µM (inactive) | 78.5 µM (inactive) | > 100 µM (inactive) | > 100 µM (inactive) | > 100 µM (inactive) | 25.6 µM (inactive) | 24.6 µM (inactive) | > 100 µM (inactive) | 52.2 µM (inactive) | 46.5 µM (inactive) | 70 µM (inactive) | 33.8 µM (inactive) | 30.8 µM (inactive) | 10.9 µM (inactive) | > 100 µM (inactive)
3 | O=C1CC2(CCC(O)(c3ccc(Cl)cc3)C(C(=O)c3ccc(Cl)cc3)C2)C(=O)c2ccccc2N1 (configuration not stated) | 3.64 µM (inactive) | 4.61 µM (inactive) | 5.74 µM (inactive) | 3.35 µM (inactive) | 0.794 µM (active) | 1.48 µM (inactive) | 3.28 µM (inactive) | 11.7 µM (inactive) | 15.2 µM (inactive) | 2.12 µM (inactive) | 3.33 µM (inactive) | 11.6 µM (inactive) | > 71 µM (inactive) | 3.42 µM (inactive) | 11.4 µM (inactive) | 12.4 µM (inactive) | 2.26 µM (inactive) | 2.6 µM (inactive) | 12.2 µM (inactive) | 17.6 µM (inactive)
4 | O=C(N/N=C/C=C/c1ccc([N+](=O)[O-])o1)c1ccc(C(=O)N/N=C/C=C/c2ccc([N+](=O)[O-])o2)cc1 | 32.6 µM (inactive) | 1.93 µM (inactive) | 36 µM (inactive) | 46.7 µM (inactive) | > 62.8 µM (inactive) | > 100 µM (inactive) | 33.1 µM (inactive) | 28.1 µM (inactive) | 29.5 µM (inactive) | 5.42 µM (inactive) | > 40.8 µM (inactive) | 36.7 µM (inactive) | > 100 µM (inactive) | 6.18 µM (inactive) | 22.4 µM (inactive) | > 100 µM (inactive) | 43.3 µM (inactive) | 17.3 µM (inactive) | – | > 67.6 µM (inactive)
5 | CCOC(=O)Nc1c(C#N)[n+]([O-])c2cc(Cl)c(Cl)cc2[n+]1[O-] | – | 4.37 µM (inactive) | 15 µM (inactive) | 45.7 µM (inactive) | 5.4 µM (inactive) | 39.5 µM (inactive) | 16.3 µM (inactive) | 6.1 µM (inactive) | 16.1 µM (inactive) | 8.71 µM (inactive) | 13.7 µM (inactive) | 20.7 µM (inactive) | – | 12.9 µM (inactive) | 10.5 µM (inactive) | 24.2 µM (inactive) | 21.7 µM (inactive) | 14.3 µM (inactive) | 16.5 µM (inactive) | 16.6 µM (inactive)
6 | COc1cc(C2OC[C@@H]3C(=O)OC[C@H]23)cc(O)c1OC (some centres not stated) | > 100 µM (inactive) | > 100 µM (inactive) | > 100 µM (inactive) | – | > 100 µM (inactive) | > 100 µM (inactive) | > 100 µM (inactive) | > 100 µM (inactive) | > 100 µM (inactive) | > 100 µM (inactive) | > 100 µM (inactive) | > 100 µM (inactive) | > 100 µM (inactive) | > 100 µM (inactive) | > 100 µM (inactive) | > 100 µM (inactive) | > 100 µM (inactive) | > 100 µM (inactive) | > 100 µM (inactive) | > 100 µM (inactive)
7 | Fc1cc(C2=Nn3c(COc4ccccc4Cl)nnc3S/C2=C\c2ccc(Cl)cc2)c(Cl)cc1Cl | 4.66 µM (inactive) | 9.04 µM (inactive) | – | 15.8 µM (inactive) | 1.36 µM (inactive) | 11.8 µM (inactive) | 3.77 µM (inactive) | 3.92 µM (inactive) | 2.23 µM (inactive) | 5.97 µM (inactive) | 3.38 µM (inactive) | 4.24 µM (inactive) | 3.96 µM (inactive) | 5.6 µM (inactive) | 3.96 µM (inactive) | 19.3 µM (inactive) | – | 3.2 µM (inactive) | 21.8 µM (inactive) | 6.4 µM (inactive)
8 | NC1=C(N2CCCCC2)C(=O)NC2=N/C(=C\c3ccccc3)C(=O)N21 | > 100 µM (inactive) | > 100 µM (inactive) | > 100 µM (inactive) | – | > 100 µM (inactive) | > 100 µM (inactive) | 57.5 µM (inactive) | > 100 µM (inactive) | > 100 µM (inactive) | 62.1 µM (inactive) | > 100 µM (inactive) | > 100 µM (inactive) | > 100 µM (inactive) | > 100 µM (inactive) | > 100 µM (inactive) | > 100 µM (inactive) | > 100 µM (inactive) | > 100 µM (inactive) | > 100 µM (inactive) | > 100 µM (inactive)
9 | CCOC(=O)c1nc2ccc(C(F)(F)F)cc2nc1Nc1ccc(OC)c(OC)c1 | 44.1 µM (inactive) | > 100 µM (inactive) | > 100 µM (inactive) | 12 µM (inactive) | 65.2 µM (inactive) | > 100 µM (inactive) | > 100 µM (inactive) | > 100 µM (inactive) | > 100 µM (inactive) | > 100 µM (inactive) | > 100 µM (inactive) | > 100 µM (inactive) | > 100 µM (inactive) | 98.6 µM (inactive) | > 100 µM (inactive) | 60 µM (inactive) | 31.7 µM (inactive) | – | > 100 µM (inactive) | > 100 µM (inactive)
10 | O[C@H]1[C@@H]2OC[C@@H](O)[C@H](OCc3ccccc3)[C@@](COCc3ccccc3)(O2)[C@@H]1OCc1ccccc1 | 16.7 µM (inactive) | 17.4 µM (inactive) | 18.2 µM (inactive) | 17.2 µM (inactive) | 10.2 µM (inactive) | 14.7 µM (inactive) | 25.4 µM (inactive) | 18.5 µM (inactive) | 15.4 µM (inactive) | 30.7 µM (inactive) | 20.3 µM (inactive) | 16.7 µM (inactive) | 15.1 µM (inactive) | 15.5 µM (inactive) | – | 21.6 µM (inactive) | 16.4 µM (inactive) | 16 µM (inactive) | 14.8 µM (inactive) | 16.7 µM (inactive)
11 | CC(CS(=O)(=O)Cc1ccccc1)C(N)=O (configuration not stated) | > 100 µM (inactive) | – | > 100 µM (inactive) | > 100 µM (inactive) | > 100 µM (inactive) | > 100 µM (inactive) | > 100 µM (inactive) | > 100 µM (inactive) | > 100 µM (inactive) | > 100 µM (inactive) | > 100 µM (inactive) | > 100 µM (inactive) | > 100 µM (inactive) | > 100 µM (inactive) | > 100 µM (inactive) | > 100 µM (inactive) | > 100 µM (inactive) | > 100 µM (inactive) | > 100 µM (inactive) | > 100 µM (inactive)
12 | Fc1ccc(OCc2nc3cc(C(F)(F)F)ccc3nc2-c2ccccc2)cc1 | > 100 µM (inactive) | > 44.1 µM (inactive) | > 100 µM (inactive) | > 100 µM (inactive) | > 45.3 µM (inactive) | > 81.7 µM (inactive) | 3.06 µM (inactive) | > 100 µM (inactive) | > 100 µM (inactive) | 13.2 µM (inactive) | > 100 µM (inactive) | 98.2 µM (inactive) | > 100 µM (inactive) | > 100 µM (inactive) | 29.7 µM (inactive) | – | > 83 µM (inactive) | > 100 µM (inactive) | > 23.8 µM (inactive) | > 100 µM (inactive)
13 | CC(=O)Nc1ccc(-c2nc3ccccc3s2)cc1Br | 63.4 µM (inactive) | > 100 µM (inactive) | > 86.7 µM (inactive) | 7.53 µM (inactive) | 46 µM (inactive) | 15.7 µM (inactive) | > 100 µM (inactive) | 71.1 µM (inactive) | > 100 µM (inactive) | > 100 µM (inactive) | > 92.5 µM (inactive) | 73.3 µM (inactive) | – | 27.3 µM (inactive) | > 100 µM (inactive) | 23.2 µM (inactive) | 37.5 µM (inactive) | 46 µM (inactive) | > 100 µM (inactive) | 25.5 µM (inactive)
14 | NS(=O)(=O)c1nnc(NC(=O)/C=C/C(=O)O)s1 | > 100 µM (inactive) | – | > 100 µM (inactive) | > 100 µM (inactive) | > 100 µM (inactive) | > 100 µM (inactive) | > 100 µM (inactive) | > 100 µM (inactive) | > 100 µM (inactive) | > 100 µM (inactive) | > 100 µM (inactive) | > 100 µM (inactive) | > 100 µM (inactive) | > 100 µM (inactive) | > 100 µM (inactive) | > 100 µM (inactive) | > 100 µM (inactive) | > 100 µM (inactive) | > 100 µM (inactive) | > 100 µM (inactive)
